Biological target: T1, human orexin-2 receptor (OX2R) (Homo sapiens, UniProt O43614)
T1 construct: expressed in transfected cells
T1 sequence (O43614 1-444): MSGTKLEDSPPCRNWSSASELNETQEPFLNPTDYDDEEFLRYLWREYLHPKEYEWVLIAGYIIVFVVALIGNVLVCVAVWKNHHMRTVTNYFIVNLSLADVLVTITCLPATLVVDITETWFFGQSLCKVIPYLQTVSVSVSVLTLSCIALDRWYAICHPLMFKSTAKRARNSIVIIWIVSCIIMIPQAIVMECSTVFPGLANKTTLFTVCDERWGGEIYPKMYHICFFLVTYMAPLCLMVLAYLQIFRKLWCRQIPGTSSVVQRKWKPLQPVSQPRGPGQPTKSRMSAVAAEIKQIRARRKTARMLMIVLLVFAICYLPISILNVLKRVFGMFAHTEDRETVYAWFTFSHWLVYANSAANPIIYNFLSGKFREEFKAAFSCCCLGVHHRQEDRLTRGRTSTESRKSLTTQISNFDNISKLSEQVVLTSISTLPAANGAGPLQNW
Test: Human OX2R IP1 assay
Assay type: cell-based
Conditions: T-Rex CHO cells stably overexpressing human OX2R, IP1 accumulation, 1 hr at 37 degrees C; mean EC50; ∧ = racemic mixture
In short: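 Doxycycline-induced T-Rex CHO cells stably expressing human OX2R treated with compound 1 hr at 37 °C in LiCl-containing buffer, pH 7.4. IP1 accumulation quantified by HTRF competitive immunoassay; EC50 reported as mean ± S.E.M.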

| EC50 [nM] | Compound |
| --- | --- |
| < 100 | CS(=O)(=O)N[C@@H]1CCCN2C(=O)COc3cccc(F)c3[C@H]3CC[C@H](CC3)OC[C@H]12 (racemic) [Compound 49] |
| < 100 | COC(=O)N1CCC[C@H](NS(C)(=O)=O)[C@@H]1CO[C@H]1CC[C@@H](c2ccccc2)CC1 [methyl (2R,3S)-3-((methylsulfonyl)amino)-2-(((cis-4-phenylcyclohexyl)oxy)methyl)-piperidine-1-carboxylate, reference compound] |
